Data published in patent publication US10160755B2 (Plexxikon Inc., priority 2015, dated 2018).

molecular target: T1, BA/F3-FLT3-ITD + F691L cells (Homo sapiens, UniProt P36888, F691L, cells depend on it, form not given); assay: BA/F3-FLT3-ITD + F691L cell proliferation assay (CellTiter-Glo); format: cell-based, murine; conditions: BaF3 FLT3 ITD/F691L cells; read-out: Cell Activity (IC50 μM) BaF3_FLT3_ITD/F691L
T1 sequence (P36888 1-993 F691L): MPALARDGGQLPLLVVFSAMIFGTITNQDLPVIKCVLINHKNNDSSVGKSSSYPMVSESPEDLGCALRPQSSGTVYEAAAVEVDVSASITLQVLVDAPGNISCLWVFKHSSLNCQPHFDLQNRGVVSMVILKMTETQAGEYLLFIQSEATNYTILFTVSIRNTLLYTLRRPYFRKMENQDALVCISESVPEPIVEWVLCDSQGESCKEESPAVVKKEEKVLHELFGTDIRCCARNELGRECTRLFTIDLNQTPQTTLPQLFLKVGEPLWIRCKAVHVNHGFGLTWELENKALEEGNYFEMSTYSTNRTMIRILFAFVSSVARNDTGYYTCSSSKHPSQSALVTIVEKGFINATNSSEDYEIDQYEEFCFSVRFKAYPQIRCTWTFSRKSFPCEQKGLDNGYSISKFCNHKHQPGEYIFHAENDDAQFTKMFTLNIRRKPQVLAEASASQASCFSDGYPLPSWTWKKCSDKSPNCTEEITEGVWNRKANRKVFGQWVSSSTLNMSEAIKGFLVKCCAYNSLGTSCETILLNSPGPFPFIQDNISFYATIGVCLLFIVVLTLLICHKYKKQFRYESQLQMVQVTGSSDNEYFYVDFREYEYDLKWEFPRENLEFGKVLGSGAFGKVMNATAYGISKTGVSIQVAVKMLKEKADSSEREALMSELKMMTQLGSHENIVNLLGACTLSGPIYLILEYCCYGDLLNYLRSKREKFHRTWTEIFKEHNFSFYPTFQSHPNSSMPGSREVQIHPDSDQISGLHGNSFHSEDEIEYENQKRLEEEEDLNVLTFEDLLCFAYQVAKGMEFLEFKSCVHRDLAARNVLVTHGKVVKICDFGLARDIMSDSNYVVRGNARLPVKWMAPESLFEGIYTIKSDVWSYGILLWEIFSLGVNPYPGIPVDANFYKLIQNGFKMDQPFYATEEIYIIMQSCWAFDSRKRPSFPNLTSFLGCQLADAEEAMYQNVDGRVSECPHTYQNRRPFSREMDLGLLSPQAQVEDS
Summary of the method: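 Murine BA/F3 cells transfected with full-length FLT3 carrying ITD plus D835Y or F691L, grown without IL-3 so growth depends on FLT3. Seeded at 1×10^4 cells/well and dosed with 8 points, 10 to 0.0046 μM, 0.2% DMSO, for three days at 37 °C. IC50 from CellTiter-Glo luminescence (ATP content).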

GI50, 0.0001 to 1 µM:
COc1ncccc1C#Cc1cnc2[nH]cc(-c3ccc4ncn(C(C)(C)C)c4c3)c2n1 [P-250, 7-(3-tert-butylbenzimidazol-5-yl)-2-[2-(2-methoxy-3-pyridyl)ethynyl]-5H-pyrrolo[2,3-b]pyrazine]
COc1cc(C#Cc2cnc3[nH]cc(-c4ccc5ncn(C6CCCNC6)c5c4)c3c2)ccn1 (centres unmarked) [P-241, 5-[2-(2-methoxy-4-pyridyl)ethynyl]-3-[3-(3-piperidyl)benzimidazol-5-yl]-1H-pyrrolo[2,3-b]pyridine]
O=S1(=O)CCCN1c1cccc(-c2cnc3[nH]cc(-c4ccc5ncn(C6CCCNC6)c5c4)c3n2)c1 (centres unmarked) [P-273, 2-[3-[7-[3-(3-piperidyl)benzimidazol-5-yl]-5H-pyrrolo[2,3-b]pyrazin-2-yl]phenyl]-1,2-thiazolidine 1,1-dioxide]
COc1cnc2[nH]cc(-c3ccc4ncn(-c5ccc(F)c(C)c5)c4c3)c2c1 [P-129, 1-(4-fluoro-3-methyl-phenyl)-6-(5-methoxy-1H-pyrrolo[2,3-b]pyridin-3-yl)benzimidazole]
CC(C)(C)n1cnc2ccc(-c3c[nH]c4ncc(-c5cccc(N6CCOCC6)c5)nc34)cc21 [P-226, 4-[3-[7-(3-tert-butylbenzimidazol-5-yl)-5H-pyrrolo[2,3-b]pyrazin-2-yl]phenyl]morpholine]
CC(C)n1cnc2ccc(-c3c[nH]c4ncc(-c5cnn(C(F)F)c5)cc34)cc21 [P-267, 5-[1-(difluoromethyl)pyrazol-4-yl]-3-(3-isopropylbenzimidazol-5-yl)-1H-pyrrolo[2,3-b]pyridine]
O=S(=O)(c1cccc(-c2cnc3[nH]cc(-c4ccc5ncn(C6CCCNC6)c5c4)c3c2)c1)N1CCCC1 (centres unmarked) [P-222, 1-(3-piperidyl)-6-[5-(3-pyrrolidin-1-ylsulfonylphenyl)-1H-pyrrolo[2,3-b]pyridin-3-yl]benzimidazole]
CCCS(=O)(=O)Nc1cccc(-c2cnc3[nH]cc(-c4ccc5ncn(C6CCCNC6)c5c4)c3c2)c1 (centres unmarked) [P-217, N-[3-[3-[3-(3-piperidyl)benzimidazol-5-yl]-1H-pyrrolo[2,3-b]pyridin-5-yl]phenyl]propane-1-sulfonamide]
FC(F)(F)Oc1cccc(-c2cnc3[nH]cc(-c4ccc5ncn(C6CCCNC6)c5c4)c3n2)c1 (centres unmarked) [P-193, 7-[3-(3-piperidyl)benzimidazol-5-yl]-2-[3-(trifluoromethoxy)phenyl]-5H-pyrrolo[2,3-b]pyrazine]
CC(C)(C)n1cnc2ccc(-c3c[nH]c4ncc(-c5cnn(CC(F)(F)F)c5)cc34)cc21 [P-252, 1-tert-butyl-6-[5-[1-(2,2,2-trifluoroethyl)pyrazol-4-yl]-1H-pyrrolo[2,3-b]pyridin-3-yl]benzimidazole]
CC(C)(C)n1cnc2ccc(-c3c[nH]c4ncc(-c5cnn(C(F)F)c5)cc34)cc21 [P-251, 1-tert-butyl-6-[5-[1-(difluoromethyl)pyrazol-4-yl]-1H-pyrrolo[2,3-b]pyridin-3-yl]benzimidazole]
